Experimental data taken from PMC8222254, “Self-assembly of an anion receptor with metal-dependent kinase inhibition and potent in vitro anti-cancer properties” (Nature Communications, 2021).
“And” between values parts separate entries of the source, which are not always exact repeats. Equal entries are not always repeated.

Legend:
Experiment in all cases: Kinase inhibition screen, cell-free 33P ATP assay at 10 μM
Assay type in all cases: biochemical
[1] = target: 140 purified human kinases (Homo sapiens, UniProt P11362)
Sequence of 140 purified human kinases (Homo sapiens, UniProt P11362) (P11362 22-822): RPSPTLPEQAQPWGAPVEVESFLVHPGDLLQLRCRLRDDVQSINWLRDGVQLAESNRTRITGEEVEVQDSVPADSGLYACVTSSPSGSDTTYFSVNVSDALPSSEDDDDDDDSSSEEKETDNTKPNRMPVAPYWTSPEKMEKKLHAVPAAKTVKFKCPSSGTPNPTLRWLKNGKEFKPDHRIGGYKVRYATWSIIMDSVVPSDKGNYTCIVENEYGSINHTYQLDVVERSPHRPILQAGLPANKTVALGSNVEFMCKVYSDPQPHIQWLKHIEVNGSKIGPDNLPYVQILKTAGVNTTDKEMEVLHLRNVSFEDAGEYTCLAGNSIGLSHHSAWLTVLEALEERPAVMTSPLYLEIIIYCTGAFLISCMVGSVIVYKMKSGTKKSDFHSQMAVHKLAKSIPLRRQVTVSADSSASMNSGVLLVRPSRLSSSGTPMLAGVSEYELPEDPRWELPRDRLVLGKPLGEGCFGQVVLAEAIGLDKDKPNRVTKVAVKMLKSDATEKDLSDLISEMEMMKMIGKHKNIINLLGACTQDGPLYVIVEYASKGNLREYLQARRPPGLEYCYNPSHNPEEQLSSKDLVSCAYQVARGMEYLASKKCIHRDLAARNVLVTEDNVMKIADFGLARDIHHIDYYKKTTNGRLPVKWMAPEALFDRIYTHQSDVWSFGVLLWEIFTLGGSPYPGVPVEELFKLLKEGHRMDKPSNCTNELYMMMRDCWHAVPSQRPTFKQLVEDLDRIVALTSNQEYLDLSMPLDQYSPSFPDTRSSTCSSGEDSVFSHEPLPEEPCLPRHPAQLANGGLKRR
In short: (§1)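 Each complex tested in duplicate at 10 μM; cell-free radiometric assay using ^33P ATP on purified enzymes. Hits mapped by HGNC symbol onto the kinome tree.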

[2] = target: 140 purified human kinases (Homo sapiens, UniProt P24941); details: CDK2-Cyclin A
In short: as §1

[3] = target: T1, 140 purified human kinases (Homo sapiens, UniProt P33981); details: TTK
T1 sequence (P33981 1-857): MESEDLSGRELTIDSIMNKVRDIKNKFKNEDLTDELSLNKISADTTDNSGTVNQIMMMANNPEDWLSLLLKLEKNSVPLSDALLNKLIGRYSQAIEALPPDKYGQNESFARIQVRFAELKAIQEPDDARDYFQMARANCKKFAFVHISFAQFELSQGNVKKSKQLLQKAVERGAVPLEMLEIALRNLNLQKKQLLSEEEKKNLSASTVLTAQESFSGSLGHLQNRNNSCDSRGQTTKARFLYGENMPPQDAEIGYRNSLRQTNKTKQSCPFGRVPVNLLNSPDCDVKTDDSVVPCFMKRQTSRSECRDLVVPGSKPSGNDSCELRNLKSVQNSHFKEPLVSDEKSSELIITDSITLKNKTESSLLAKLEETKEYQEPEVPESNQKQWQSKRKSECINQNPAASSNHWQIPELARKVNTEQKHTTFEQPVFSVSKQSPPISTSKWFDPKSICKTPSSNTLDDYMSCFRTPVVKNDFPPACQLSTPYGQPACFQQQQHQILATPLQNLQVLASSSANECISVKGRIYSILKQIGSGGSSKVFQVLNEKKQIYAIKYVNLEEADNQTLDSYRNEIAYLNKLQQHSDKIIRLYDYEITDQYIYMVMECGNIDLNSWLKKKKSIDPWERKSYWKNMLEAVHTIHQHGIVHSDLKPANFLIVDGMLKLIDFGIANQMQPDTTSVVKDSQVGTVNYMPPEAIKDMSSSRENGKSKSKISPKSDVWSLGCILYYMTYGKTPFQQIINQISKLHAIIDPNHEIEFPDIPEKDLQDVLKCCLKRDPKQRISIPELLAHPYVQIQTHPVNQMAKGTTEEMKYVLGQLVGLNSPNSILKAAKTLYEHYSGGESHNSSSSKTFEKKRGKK
In short: as §1

[4] = target: T2, 140 purified human kinases (Homo sapiens, UniProt Q05513); details: PKCz; for % Activity inhibition Mean / % Activity inhibition Run 1 / % Activity inhibition Run 2 / % Activity remaining Run 1 / % Activity remaining Run 2: 10 µM
T2 sequence (Q05513 1-592): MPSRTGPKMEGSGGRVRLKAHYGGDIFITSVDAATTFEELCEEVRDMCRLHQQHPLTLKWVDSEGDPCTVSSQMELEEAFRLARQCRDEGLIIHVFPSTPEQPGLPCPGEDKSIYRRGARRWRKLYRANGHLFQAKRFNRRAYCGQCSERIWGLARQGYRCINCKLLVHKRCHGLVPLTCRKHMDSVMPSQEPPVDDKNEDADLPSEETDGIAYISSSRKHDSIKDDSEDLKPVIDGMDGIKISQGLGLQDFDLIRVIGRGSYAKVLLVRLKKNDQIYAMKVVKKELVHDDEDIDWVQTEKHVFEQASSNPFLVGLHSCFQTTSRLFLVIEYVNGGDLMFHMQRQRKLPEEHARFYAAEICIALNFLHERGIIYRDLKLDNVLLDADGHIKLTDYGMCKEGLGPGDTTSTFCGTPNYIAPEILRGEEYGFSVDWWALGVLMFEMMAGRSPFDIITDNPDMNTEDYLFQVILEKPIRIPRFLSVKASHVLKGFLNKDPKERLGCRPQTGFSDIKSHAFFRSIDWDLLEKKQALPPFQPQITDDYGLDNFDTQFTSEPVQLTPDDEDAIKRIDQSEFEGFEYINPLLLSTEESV
In short: as §1

[5] = target: 140 purified human kinases (Homo sapiens, UniProt Q7KZI7)
Sequence of 140 purified human kinases (Homo sapiens, UniProt Q7KZI7) (Q7KZI7 whole entry): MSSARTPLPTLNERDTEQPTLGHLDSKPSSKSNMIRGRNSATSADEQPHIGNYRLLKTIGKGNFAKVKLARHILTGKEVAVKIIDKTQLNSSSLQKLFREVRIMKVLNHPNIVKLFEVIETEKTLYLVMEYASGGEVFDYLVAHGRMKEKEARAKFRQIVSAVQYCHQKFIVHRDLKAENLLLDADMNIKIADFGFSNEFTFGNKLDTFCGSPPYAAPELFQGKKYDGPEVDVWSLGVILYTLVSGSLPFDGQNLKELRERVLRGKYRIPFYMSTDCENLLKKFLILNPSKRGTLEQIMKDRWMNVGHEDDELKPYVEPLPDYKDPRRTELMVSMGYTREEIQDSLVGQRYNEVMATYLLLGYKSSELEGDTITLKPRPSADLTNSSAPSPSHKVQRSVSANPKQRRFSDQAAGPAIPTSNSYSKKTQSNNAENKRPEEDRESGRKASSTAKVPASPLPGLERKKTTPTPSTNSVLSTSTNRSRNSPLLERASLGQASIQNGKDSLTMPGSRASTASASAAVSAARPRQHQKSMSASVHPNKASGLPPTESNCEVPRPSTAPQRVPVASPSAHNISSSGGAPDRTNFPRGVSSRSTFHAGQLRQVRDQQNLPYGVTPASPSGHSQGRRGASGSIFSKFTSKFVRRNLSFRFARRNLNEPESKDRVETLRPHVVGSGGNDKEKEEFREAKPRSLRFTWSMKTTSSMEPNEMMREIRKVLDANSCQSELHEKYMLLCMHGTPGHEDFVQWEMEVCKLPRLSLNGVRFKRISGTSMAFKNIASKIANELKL
In short: as §1

[6] = target: T3, 140 purified human kinases (Homo sapiens, UniProt Q8IW41); details: PRAK
T3 sequence (Q8IW41 1-473): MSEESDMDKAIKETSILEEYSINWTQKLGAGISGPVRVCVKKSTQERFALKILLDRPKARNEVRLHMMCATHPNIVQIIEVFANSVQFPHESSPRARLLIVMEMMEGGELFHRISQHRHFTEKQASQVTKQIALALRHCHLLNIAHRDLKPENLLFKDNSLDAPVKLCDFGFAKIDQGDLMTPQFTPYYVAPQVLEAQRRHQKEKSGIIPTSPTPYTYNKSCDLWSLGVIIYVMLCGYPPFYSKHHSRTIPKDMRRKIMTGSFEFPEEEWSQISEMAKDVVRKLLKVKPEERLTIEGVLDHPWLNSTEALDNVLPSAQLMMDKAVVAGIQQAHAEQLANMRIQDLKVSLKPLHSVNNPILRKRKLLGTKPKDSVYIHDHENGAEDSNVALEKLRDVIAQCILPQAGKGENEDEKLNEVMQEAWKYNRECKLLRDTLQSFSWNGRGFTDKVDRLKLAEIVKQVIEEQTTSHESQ
In short: as §1

[Cu+2].[Cu+2].[Cu+2].c1ccc(-c2csc(NCCN(CCNc3nc(-c4ccccn4)cs3)CCNc3nc(-c4ccccn4)cs3)n2)nc1.c1ccc(-c2csc(NCCN(CCNc3nc(-c4ccccn4)cs3)CCNc3nc(-c4ccccn4)cs3)n2)nc1 [[L2Cu3]6+]
% Inhibition Run 1 ([1]; FGF-R1): 63.7% | % Inhibition Run 2 ([1]; FGF-R1): 61.4% | % Inhibition, Mean ([1]; FGF-R1): 63% | mean % activity ([1]; FGF-R1): 37% | % activity ([1]; FGF-R1, Run 1): 36.3% | % activity ([1]; FGF-R1, Run 2): 38.6% | % Activation, Mean value [2]: 9.5% | % Inhibition Run 1 [2]: -10.1% | % Inhibition Run 2 [2]: -8.9% | % Inhibition, Mean [2]: -9.5% | mean % activity [2]: 110% | % activity ([2]; Run 1): 110.1% | % activity ([2]; Run 2): 108.9% | % Activity Run 1 ([2]; 10 µM): 110.10% | % Activity Run 2 ([2]; 10 µM): 108.90% | % Inhibition Run 1 [3]: 41.9% | % Inhibition Run 2 [3]: 45.5% | % Inhibition, Mean [3]: 44% | mean % activity [3]: 56% | % activity ([3]; Run 1): 58.1% | % activity ([3]; Run 2): 54.5% | % Inhibition Run 1 [4]: 92.5% | % Inhibition Run 2 [4]: 95.1% | % Inhibition, Mean [4]: 94% | mean % activity [4]: 6% | % activity ([4]; Run 1): 7.5% | % activity ([4]; Run 2): 4.9% | % Activity inhibition Mean [4]: 93.8% | % Activity inhibition Run 1 [4]: 92.5% | % Activity inhibition Run 2 [4]: 95.1% | % Activity remaining Run 1 [4]: 7.50% | % Activity remaining Run 2 [4]: 4.90% | % Inhibition Run 1 ([5]; MARK2): 29.8% | % Inhibition Run 2 ([5]; MARK2): 21.6% | % Inhibition, Mean ([5]; MARK2): 26% | mean % activity ([5]; MARK2): 74% | % activity ([5]; MARK2, Run 1): 70.2% | % activity ([5]; MARK2, Run 2): 78.4% | % Inhibition Run 1 [6]: 79.7% | % Inhibition Run 2 [6]: 79.1% | % Inhibition, Mean [6]: 79% | mean % activity [6]: 21% | % activity ([6]; Run 1): 20.3% | % activity ([6]; Run 2): 20.9%

CC(=O)[O-].CC(=O)[O-].CC(=O)[O-].CC(=O)[O-].CC(=O)[O-].CC(=O)[O-].[Zn+2].[Zn+2].[Zn+2].c1ccc(-c2csc(NCCN(CCNc3nc(-c4ccccn4)cs3)CCNc3nc(-c4ccccn4)cs3)n2)nc1.c1ccc(-c2csc(NCCN(CCNc3nc(-c4ccccn4)cs3)CCNc3nc(-c4ccccn4)cs3)n2)nc1 [[L2Zn3]6+]
% Inhibition, Mean ([1]; FGF-R1): 82% | % Inhibition, Run 1 / Run 2 ([1]; FGF-R1): 88% and 76% | mean % activity ([1]; FGF-R1): 18% | % Activity inhibition Mean ([1]; FGF-R1, 10 µM): 81.5% | % Activity inhibition Run 1 ([1]; FGF-R1, 10 µM): 87% | % Activity inhibition Run 2 ([1]; FGF-R1, 10 µM): 76% | % Activity remaining Run 1 ([1]; FGF-R1, 10 µM): 13% | % Activity remaining Run 2 ([1]; FGF-R1, 10 µM): 24% | % activity ([1]; FGF-R1, duplicate runs): 13% and 24% | % Inhibition, Mean [2]: 1.8% | mean % activity [2]: 98% | % activity ([2]; duplicate runs): 93% and 103% | % Inhibition, Mean [3]: 33% | % Inhibition, Run 1 / Run 2 [3]: 37% and 28% | mean % activity [3]: 67% | % activity ([3]; duplicate runs): 63% and 72% | % Inhibition, Mean [4]: 88% | % Inhibition, Run 1 / Run 2 [4]: 89% and 87% | mean % activity [4]: 12% | % Activity inhibition Mean [4]: 88.0% | % Activity inhibition Run 1 [4]: 89% | % Activity inhibition Run 2 [4]: 87% | % Activity remaining Run 1 [4]: 11% | % Activity remaining Run 2 [4]: 13% | % activity ([4]; duplicate runs): 11% and 13% | % Inhibition, Mean ([5]; MARK2): 34% | % Inhibition, Run 1 / Run 2 ([5]; MARK2): 45% and 24% | mean % activity ([5]; MARK2): 66% | % activity ([5]; MARK2, duplicate runs): 56% and 76% | % Inhibition, Mean [6]: 81% | % Inhibition, Run 1 / Run 2 [6]: 83% and 79% | mean % activity [6]: 19% | % Activity inhibition Mean ([6]; 10 µM): 81.0% | % Activity inhibition Run 1 ([6]; 10 µM): 83% | % Activity inhibition Run 2 ([6]; 10 µM): 79% | % Activity remaining Run 1 ([6]; 10 µM): 17% | % Activity remaining Run 2 ([6]; 10 µM): 21% | % activity ([6]; duplicate runs): 17% and 21%
